Values of other authors, collected in patent US6939987B2, “Method for producing Aspartame derivative, method for purifying the same, crystals thereof and uses of the same” (Ajinomoto Co., Inc., priority 1999, dated 2005).

Settings: relative to sucrose; reported in International Patent Publication WO94/11391

Compound: COC(=O)[C@H](Cc1ccccc1)NC(=O)[C@H](CC(=O)O)NCCC(C)(C)C [N-[N-(3,3-dimethylbutyl)-L-α-aspartyl]-L-phenylalanine 1-methyl ester]
- sweetening potency: 10000 times that of sucrose
